Paper PMC12624794, “Mechanism of inhibition of acid-mediated transthyretin aggregation by designed peptides” (The Journal of Biological Chemistry, 2025)

Columns and labels:
seeded TTR aggregation = conditions: extracted amyloidogenic fibrils from patients as seeds, in vitro; cited from earlier work
TTR tetramer = conditions: cited from earlier work
From the text: (§1) However, the efficacy of tafamidis is reduced for patients with TTR amyloidosis diagnosed at a later stage, when severe organ damage caused by TTR aggregates cannot be reversed ([12]).

[1] = test system: patients with TTR amyloidosis; conditions: TTR amyloidosis diagnosed at a later stage; cited from earlier work
From the text: as §1

[2] = biological target: T1, TTR^F (C10S-trifluoroacetyl-S85C TTR) (Homo sapiens, UniProt P02766, C30S/S105C); assay: Real-time 19F-NMR aggregation kinetics at 310 K, pH 4.4 (three-state model); type: biochemical; conditions: 1 μM peptide; pH 4.4, 310 K
T1 construct: made in house
Protocol: At acidic pH, tetramer dissociation is favored, the misfolding of the monomeric intermediate is facilitated, and the downhill aggregation is accelerated ([1]). We used a previously reported ^19F-labeled TTR construct, C10S-trifluoroacetyl-S85C (denoted as TTR^F), to quantify TTR aggregation kinetics using real-time ^19F-NMR. […] To quantify how the presence of peptides alters TTR aggregation kinetics, we added 1 μM of each TabH2 and TabF2 as well as 1 μM ffTAD1 to 2.5 μM TTR^F (tetramer concentration) at pH 4.4 and 310 K and monitored time-dependent population kinetics for tetramer, monomer, and NMR-invisible aggregates (Fig. 3, A and B). […]
To gain kinetic insights into the aggregation pathway, we fit the time-dependent aggregation data of TTR^F using a previously reported three-state kinetic model, tetramer ↔ monomer ↔ aggregate ([18]), where tetramer and monomer are NMR-visible, and aggregates are NMR-invisible. […] Using this model, fits of the time-dependent population changes determined from peak areas yield four first-order apparent rates. […]
^19F-NMR spectra were acquired using Bruker Avance 600 or Avance 700 MHz spectrometers as previously described ([18]). […] Weighted average chemical shift perturbations (CSPs) for backbone amides were calculated using (Δδ^1H)^2+(Δδ^15N/5)^2 , where Δ δ means chemical shift differences for either ^1H or ^15N with and without peptides.

Row | Structure (SMILES) | inhibition of seeded TTR aggregation (seeded TTR aggregation) | binding to TTR tetramer (TTR tetramer) | effect on tetramer dissociation (TTR tetramer; stabilization of the tetramer) | efficacy in late-diagnosed patients [1] | reduction of steady-state population of NMR-invisible aggregates vs TTR^F-only control [2] [%]
1 | O=C(O)c1ccc2nc(-c3cc(Cl)cc(Cl)c3)oc2c1 [Tafamidis] | does not effectively inhibit seeded TTR aggregation | binds to the central cavity of the TTR tetramer | suppresses dissociation to monomers | reduced | 
2 | CC(C)[C@H](NC(=O)[C@H](C)NC(=O)[C@H](Cc1ccc(O)cc1)NC(=O)[C@H](CO)NC(=O)[C@@H](NC(=O)[C@@H]1CCCN1C(=O)[C@H](CC(N)=O)NC(=O)[C@@H](NC(=O)[C@@H](NC(=O)[C@H](Cc1ccc(O)cc1)NC(=O)[C@H](CO)NC(=O)[C@H](CCCNC(=N)N)NC(=O)[C@H](CCCNC(=N)N)NC(=O)[C@H](CCCNC(=N)N)NC(=O)[C@H](CCCNC(=N)N)NC(=O)[C@H](CCC(=O)O)NC(=O)[C@@H](NC(=O)[C@H](CO)NC(=O)CNC(=O)CNC(=O)CNC(=O)[C@H](CCC(=O)O)NC(=O)[C@@H](NC(=O)[C@H](Cc1ccccc1)NC(=O)[C@H](CCC(=O)O)NC(=O)[C@@H](NC(=O)[C@H](Cc1ccccc1)NC(=O)[C@@H]1CCCN1C(=O)[C@H](Cc1c[nH]cn1)NC(=O)[C@H](C)NC(=O)[C@@H](NC(=O)[C@H](Cc1c[nH]cn1)NC(=O)[C@H](CCCNC(=N)N)NC(=O)[C@H](CCCNC(=N)N)NC(=O)[C@H](CCCNC(=N)N)NC(=O)[C@H](CCCNC(=N)N)NC(=O)[C@H](Cc1c[nH]cn1)NC(=O)[C@H](Cc1c[nH]cn1)NC(=O)[C@H](Cc1c[nH]cn1)NC(=O)[C@H](Cc1c[nH]cn1)NC(=O)[C@H](Cc1c[nH]cn1)NC(=O)[C@@H](N)Cc1c[nH]cn1)C(C)C)C(C)C)[C@@H](C)O)[C@@H](C)O)C(C)C)[C@@H](C)O)[C@@H](C)O)C(=O)N[C@H](C(=O)O)[C@@H](C)O [ffTAD1] |  |  |  |  | ~8
